Laboratory results published in patent publication US20240400546A1, “COMPOUNDS AND USES THEREOF” (JANSSEN PHARMACEUTICA NV, priority 2016, published 2024).

What was measured:
Type in all cases: cell-based
SCD5 = target: T1, SCD5 (Homo sapiens, UniProt Q86SK9); experiment: Growth inhibition of humanized yeast expressing SCD5 as sole desaturase; settings: for half-maximal inhibitory concentration (IC50), SCD5 humanized strain: FIG. 6
T1 construct: host or cells: S. cerevisiae ole1Δ strain, plasmid pRS316 with TDH3 promoter and CYC1 terminator
T1 sequence (Q86SK9 1-330): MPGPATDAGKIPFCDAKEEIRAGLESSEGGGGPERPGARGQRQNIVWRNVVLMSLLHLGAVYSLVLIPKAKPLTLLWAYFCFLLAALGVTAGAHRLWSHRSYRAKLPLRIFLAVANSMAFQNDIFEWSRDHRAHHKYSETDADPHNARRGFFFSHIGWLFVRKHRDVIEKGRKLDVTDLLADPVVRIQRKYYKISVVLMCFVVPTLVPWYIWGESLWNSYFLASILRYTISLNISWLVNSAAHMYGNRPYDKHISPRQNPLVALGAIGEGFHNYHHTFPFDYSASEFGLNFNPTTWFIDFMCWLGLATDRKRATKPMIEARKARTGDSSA
Protocol: (§1) Strain ole1Δ (yeast ole1 deletion mutant) was constructed by deleting OLE1 with NAT-MX6 in BY4741, amplifying the deletion cassette from the genomic DNA of the resulting strain with primers flanking the ORF by 1000 bp upstream and downstream, transforming the resulting deletion cassette into W303 pdr1Δ pdr3Δ, and plating transformants on YPD media containing G418 (200 μg/mL) and nourseothricin (100 μg/mL) with 0.01% TWEEN®-20 and 0.5 mM oleic and palmitoleic acids.
(§2) The coding sequence of yeast OLE1 was also cloned into this plasmid). These clones were then transformed into the ole1Δ strain and plated on CSM-Ura media (CSM lacking uracil) with 2% glucose (w/v) and independent colonies were isolated and amplified.
(§3) All compound profiling experiments were performed using the same basic protocol. Different genetic backgrounds (e.g., gene deletions) or conditions (e.g., addition of oleic and palmitoleic acid) were replaced as indicated below.
(§4) Yeast were cultured using standard techniques in complete synthetic media (CSM) and yeast nitrogen base supplemented with 2% (w/v) carbon source (glucose, raffinose, or galactose) to regulate the expression of the toxic disease protein. An initial starter culture was inoculated in 3 mL CSM-Glucose media and incubated overnight in a 30° C. shaker incubator (225 rpm). Saturated morning cultures were then diluted 1:20 in fresh CSM-Raffinose media and grown for 6 h to an OD600 (optical density) of ˜0.4-0.8 at 30° C. with shaking.
(§5) Compound administration was performed in two separate steps. First, 15 μL of CSM-Galactose (induces expression of toxic protein) was dispensed into clear 384 well assay plates using a MULTIDROP™ Combi reagent dispenser. […] The cultures described above were then diluted to a 2× concentration (0.03 and 0.08 for alpha-synuclein and ApoE, final OD600 of 0.015 and 0.04) in CSM-Galactose. For wild-type and Ole1/SCD1/SCD5 plasmid-containing strains, the 2× cell density was 0.02. […] For 96-well assays (FIGS. 1A and 1B), compound dilutions in DMSO were generated in 96 well plates and 1 μL was manually pipetted into 96 well clear bottom assay plates.
(§6) For experiments using a plasmid-borne copy of Ole1, SCD1, or SCD5 (FIGS. 3B, 6, and 7), media lacking uracil (SX-Ura, where X is glucose, raffinose, or galactose), was used for all steps of the compound profiling protocol to ensure its maintenance throughout the assay.
(§7) After yeast delivery, assay plates were incubated under humidified conditions at 30° C. for 24 to 40 h. ApoE4 rescue experiments were stopped at 24 h, aSyn experiments at 40 h, Ole1 at 24 h, and SCD1/SCD5 at 40 h. The growth of yeast was monitored by reading the OD600 of each well using a microplate reader (Perkin Elmer EnVision™).

SCD1 = target: T2, SCD1 (Homo sapiens, UniProt O00767); experiment: Growth inhibition of humanized yeast expressing SCD1 as sole desaturase; settings: for half-maximal inhibitory concentration (IC50), SCD1 humanized strain: FIG. 6
T2 construct: host or cells: S. cerevisiae ole1Δ strain, plasmid pRS316 with TDH3 promoter and CYC1 terminator
T2 sequence (O00767 1-359): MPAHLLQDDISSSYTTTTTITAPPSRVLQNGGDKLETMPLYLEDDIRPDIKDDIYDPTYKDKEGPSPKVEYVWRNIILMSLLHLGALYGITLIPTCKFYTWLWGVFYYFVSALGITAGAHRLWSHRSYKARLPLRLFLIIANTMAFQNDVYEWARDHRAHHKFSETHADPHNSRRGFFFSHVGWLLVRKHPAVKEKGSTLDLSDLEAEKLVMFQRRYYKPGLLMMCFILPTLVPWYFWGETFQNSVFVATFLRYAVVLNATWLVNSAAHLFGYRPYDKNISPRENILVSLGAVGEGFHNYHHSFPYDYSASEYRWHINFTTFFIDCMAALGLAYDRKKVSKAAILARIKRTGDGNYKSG
How it was run: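 ole1Δ yeast (W303 pdr1Δ pdr3Δ background) carried plasmid-borne human SCD1, human SCD5 or yeast Ole1 as the sole desaturase and were grown in uracil-lacking galactose medium in 384-well plates. Starting 2× density was OD600 0.02, with incubation at 30 °C. Growth was read as OD600 at 24 h for Ole1 and at 40 h for SCD1 and SCD5.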

Ole1 = target: T3, Ole1 (Saccharomyces cerevisiae, UniProt P21147); experiment: Growth inhibition of yeast expressing Ole1 as sole desaturase; settings: for Sensitivity of yeast expressing OLE1 to known SCD1/SCD5 inhibitors: FIG. 6; for OLE1 % Max Inhibition: yeast expressing Ole1 as sole desaturase
T3 construct: expressed in transfected cells; host or cells: S. cerevisiae ole1Δ strain (W303 pdr1Δ pdr3Δ background), plasmid pRS316 with TDH3 promoter and CYC1 terminator
T3 sequence (P21147 1-510): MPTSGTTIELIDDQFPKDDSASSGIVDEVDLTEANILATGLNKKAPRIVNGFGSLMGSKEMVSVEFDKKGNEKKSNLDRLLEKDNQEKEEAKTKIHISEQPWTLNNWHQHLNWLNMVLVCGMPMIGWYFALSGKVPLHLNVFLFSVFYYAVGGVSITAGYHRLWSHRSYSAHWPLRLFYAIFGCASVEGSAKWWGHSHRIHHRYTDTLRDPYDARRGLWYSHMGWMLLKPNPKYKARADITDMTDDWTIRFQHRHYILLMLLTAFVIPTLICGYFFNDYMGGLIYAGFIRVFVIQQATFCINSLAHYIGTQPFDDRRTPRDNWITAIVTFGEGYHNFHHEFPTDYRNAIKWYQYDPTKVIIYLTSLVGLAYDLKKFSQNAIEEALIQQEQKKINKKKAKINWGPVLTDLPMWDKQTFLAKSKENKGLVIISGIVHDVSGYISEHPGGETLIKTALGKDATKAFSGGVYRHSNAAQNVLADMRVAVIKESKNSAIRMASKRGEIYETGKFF
Protocol: as §1, §2, §3, §4, §5, §6, §7

[1] = humanized yeast expressing SCD5
[2] = humanized yeast expressing SCD1
[3] = humanized yeast expressing human SCD5
[4] = humanized yeast expressing human SCD1
[5] = growth of humanized yeast strain expressing human SCD5
[6] = growth of humanized yeast strain expressing human SCD1

**Q.** How did the IC50 (SCD5; humanized yeast strain, 40 h) turn out when `CC(=O)N1CC(n2cc3ccc(-c4nc(C5CCN(C(=O)OC(C)(C)C)CC5)no4)cc3n2)C1` [Compound 862] was run?
**A.** 0.01 µM

**Q.** And the IC50 (SCD1; humanized yeast strain, 40 h)?
**A.** 33.8 µM

**Q.** What does the source list for `CNC(=O)c1cccc(NC(=O)N2CCC(Oc3ccccc3Cl)CC2)c1` [Compound A939572, reference compound]?
**A.** half-maximal inhibitory concentration (IC50), SCD5 humanized strain (SCD5): low nanomolar; Sensitivity of yeast expressing OLE1 to known SCD1/SCD5 inhibitors (Ole1): resistant; half-maximal inhibitory concentration (IC50), SCD1 humanized strain (SCD1): low nanomolar

**Q.** How did the IC50 (SCD5; [1]) turn out when `COc1ccc(-c2noc(C3CCN(C(=O)[C@@H]4CC(=O)N(c5ccc(C)c(C)c5)C4)CC3)n2)cc1OC` [Compound 68] was run?
**A.** > 45 µM

**Q.** What about the “SCD5 % Max Inhibition” value (SCD5; [1]) of the same compound?
**A.** 3.75%

**Q.** And the “OLE1 % Max Inhibition” value (Ole1)?
**A.** 9.74%

**Q.** And the IC50 (SCD1; [2])?
**A.** > 45 µM

**Q.** And the “SCD1 % Max Inhibition” value (SCD1; [2])?
**A.** 22.28%

**Q.** For `COc1ccc(-c2noc(C3CCN(C(=O)[C@H]4CC(=O)N(c5ccc(C)c(C)c5)C4)CC3)n2)cc1OC` (single isomer, unassigned) [Compound 67], which “SCD5 % Max Inhibition” value (SCD5; [1]) is on record?
**A.** 4.32%

**Q.** And the “OLE1 % Max Inhibition” value (Ole1)?
**A.** 85.79%

**Q.** What about the “SCD1 % Max Inhibition” value (SCD1; [2]) of the same compound?
**A.** 54.45%

**Q.** With `CCN1C(=O)CN(C)c2ccc(-c3noc(C4CCN(C(=O)CNC(=O)c5ccccc5)CC4)n3)cc21` [Compound 298] as the compound, how does the IC50 (SCD5; [3]) read?
**A.** > 45 µM

**Q.** What about the “SCD5 % Max Inhibition” value (SCD5; [3]) of the same compound?
**A.** 21.3%

**Q.** What about the “OLE1 % Max Inhibition” value (Ole1) of the same compound?
**A.** 6.6%

**Q.** What about the IC50 (SCD1; [4]) of the same compound?
**A.** > 45 µM

**Q.** And the “SCD1 % Max Inhibition” value (SCD1; [4])?
**A.** 92.3%

**Q.** For `CC(C)n1ncc2ccc(-c3noc(C4CCN(C(=O)c5ncco5)CC4)n3)cc21` [Compound 615], which IC50 (SCD5; [5]) is on record?
**A.** 1.88 µM

**Q.** And the IC50 (SCD1; [6])?
**A.** 0.848 µM

**Q.** How did the IC50 (SCD5; [3]) turn out when `Cc1nn(C)c2cc(-c3noc(C4CCN(C(=O)OC(C)(C)C)CC4)n3)ccc12` [Compound 300] was run?
**A.** > 45 µM

**Q.** What about the “SCD5 % Max Inhibition” value (SCD5; [3]) of the same compound?
**A.** 36.0%

**Q.** And the “OLE1 % Max Inhibition” value (Ole1)?
**A.** 79.7%

**Q.** What about the IC50 (SCD1; [4]) of the same compound?
**A.** > 45 µM

**Q.** What about the “SCD1 % Max Inhibition” value (SCD1; [4]) of the same compound?
**A.** 78.1%

**Q.** How did the IC50 (SCD5; humanized yeast strain, 40 h) turn out when `CC(C)(C)OC(=O)N1CCN(c2noc(-c3ccc4cnn(C5COC5)c4c3)n2)CC1` [Compound 750] was run?
**A.** 0.01 µM

**Q.** And the IC50 (SCD1; humanized yeast strain, 40 h)?
**A.** 3.25 µM

**Q.** How did the IC50 (SCD5; [5]) turn out when `CC(C)n1ncc2ccc(N3CC4(CCN(C(=O)OC(C)(C)C)CC4)C3)cc21` [Compound 663] was run?
**A.** 0.01 µM

**Q.** And the IC50 (SCD1; [6])?
**A.** > 45 µM

**Q.** How did the IC50 (SCD5; [3]) turn out when `N#Cc1cccc(N2CC(C(=O)N3CCC(c4nc(Cl)no4)CC3)CC2=O)c1` (stereo not drawn) [Compound 350] was run?
**A.** ≥ 45 µM

**Q.** With `Cc1nnc(-c2ccc(N3CCC(Oc4cc(F)ccc4Cl)CC3)nn2)o1` [CAY10566, reference compound] as the compound, how does the “half-maximal inhibitory concentration (IC50), SCD5 humanized strain” value (SCD5) read?
**A.** low nanomolar

**Q.** What about the “Sensitivity of yeast expressing OLE1 to known SCD1/SCD5 inhibitors” value (Ole1) of the same compound?
**A.** resistant

**Q.** What about the “half-maximal inhibitory concentration (IC50), SCD1 humanized strain” value (SCD1) of the same compound?
**A.** low nanomolar

**Q.** With `O=C(C1CC(=O)N(c2cccc(Cl)c2)C1)N1CCC(c2nc(Cl)no2)CC1` (stereo not drawn) [Compound 348] as the compound, how does the IC50 (SCD5; [3]) read?
**A.** ≥ 45 µM

**Q.** `Cc1noc(N2CCC(c3nc(-c4ccc5c(C)nn(C)c5c4)no3)CC2)n1` [Compound 543] was tested. Which IC50 (SCD5; [3]) did it give?
**A.** ≥ 45 µM

**Q.** And the IC50 (SCD1; [4])?
**A.** > 45 µM
